This is an account of results in US9492428B2, “Compounds, compositions, pharmaceutical compositions, and methods of use” (University of Louisville Research Foundation, Inc., priority 2011, dated 2016).

One experiment has as its system DU145 cells. The experiment can be described thus: Flow cytometric analysis of cell cycle (propidium iodide) in DU145. The class given is cell-based, human. As to the method: FIG. 9. Effect of compound I-1 at 5 μM on cell cycle and apoptosis. Cells were then harvested by trypsinization. (A) For flow cytometric analysis of cell cycle parameters, cells were fixed, and stained with propidium iodide. Each histogram indicates the percent of cells in G1, S, and G2/M phases of the cell cycle. Data were gated to exclude apoptotic cells for these calculations. (B) For apoptosis detection, cells were incubated with FITC-conjugated Annexin V and propidium iodide. Flow cytometric analysis was performed and the histogram for each sample was split into four quadrants to indicate: viable cells (lower left quadrant), apoptotic cells (lower right quadrant), necrotic cells (upper left quadrant), and necrotic/late apoptotic cells (upper right quadrant).
FIG. 10. Flow cytometric analysis of cell cycle parameters. DU145 prostate cancer cells were incubated for 24 h (A) or for 48 h (B) in the presence of 10 μM compound I-1 or vehicle (DMSO), or without additive (untreated). Cells were then harvested by trypsinization, fixed, and stained with propidium iodide for analysis by flow cytometry. Each histogram indicates the percent of cells in G1, S, and G2/M phases of the cell cycle. Data were gated to exclude apoptotic cells for these calculations. A small population of aneuploid cells with >4n DNA content, which became apparent in the cells treated with compound I-1, is also indicated (percentage underlined).
Flow cytometric assays of cell cycle and cell death. Cells in fresh complete medium were plated (2×10^5 per well) into six-well plates for 18 h. After complete adhesion, cells were treated as indicated in the figures and harvested by trypsinization. For cell cycle distribution, cells were fixed, and stained with propidium iodide using the Cycle Test Plus kit (Becton Dickinson). For cell death detection, cells were stained with Annexin-V-FITC and propidium iodide using the Apoptosis Detection Kit (BD Biosciences), according to the manufacturer's instructions. Cells were then analyzed by flow cytometry using a FACScalibur cytometer (BD Biosciences, Mountain View, Calif.) and FlowJo program (Tree Star, Inc., Ashland, Oreg.).

For experiment [1], the system named is PC3 prostate cancer cells. The experiment can be described thus: MTT cell proliferation assay in PC3. Type of experiment: cell-based, human. Conditions: after three days of treatment. Here is the method:
FIG. 8. Cell proliferation assay. (A) DU145 or PC3 prostate cancer were plated at a density of 1,500 cells per well in 96-well plates and incubated 18 hours at 37° C. to allow adherence. They were untreated or treated by addition of different concentrations of compound I-1 (which were added directly to the medium) or vehicle (DMSO), and proliferation was measured using a 3-(4,5-dimethylthiazol-2-yl)-2,5-diphenyltetrazolium bromide MTT assay after 3 days of treatment. Points, mean of triplicate normalized samples to vehicle sample; bars, SE. (B) GI50 after 3 days of treatment. (C) Prostate cancer cells (DU145 or PC3) or a non-malignant epithelial cells (RWPE-1) were plated at a density of 1,000 cells per well in 96-well plates and incubated 18 hours at 37° C. to allow adherence. They were untreated or treated by addition of different concentrations of compound I-1 (added directly to the medium) or vehicle (DMSO), and proliferation was by MTT assay after 5 days of treatment. Points, mean of triplicate normalized samples to vehicle sample; bars, SE.
General Experimental Procedure. Compound I-1 was isolated as described in Example Set 1, above. For samples of compound I-1 used in Example Set 2, HPLC and NMR indicated a purity of at least 95%. All experiments described in Example Set 2 were repeated at least two or three times. […]

The subject of another experiment is RWPE-1 cells. The experiment can be described thus: MTT assay (cytotoxicity) in RWPE-1. The class given is cell-based. Conditions: Homo sapiens, FIG. 4, read-out: GI50 against RWPE-1. The source says: FIG. 4. Bioassay of compound I-1, compound I-2, and compound I-3. SPA14-3-2 is pure compound I-2. SPA14-3-3 is pure compound I-3. SPA14-3-4 is pure compound I-1. MTT assays using compound I-1, compound I-2, and compound I-3 against DU145 and RWPE-1 cells lines.
Isolation, NMR, and X-ray crystallographic analyses. Leaves, stems, and few fruits of Physalis angulate L (Solanaceae) were collected in Rio Domingusa. Kuith/Barranquita, Amazonas Department, Northeastern Peru, and identified by the team led by Walter Lewis (collection voucher 18597, Ext. 1159). Dried and grounded material (46 g) was extracted with ethanol (1 L, 95%) for 7 days. The evaporated crude extract (6.26 g) was denoted SPA. An aliquot (1.5 g) of SPA was partitioned between dichloromethane (40 mL) and water (40 mL), affording two fractions: organic (SPA1, 500 mg) and aqueous (SPA2, 600 mg). All MTT assays were performed as described in Bates et al. “G-Rich Oligonucleotides for Cancer Treatment” Chapter 21 of Methods in Molecular Biology, Gene Therapy of Cancer, Wolfgang Walther and Ulrike S. Stein (eds.), Vol. 542, 2009, Humana Press. […] SPA14-3 (30 mg) was treated on an HPLC using a reverse phase C18 column eluted in gradient mode of methanol and water (from 80% methanol to 100% methanol) and detected at 254 nm, yielding SPA14-3-1 (0 mg), SPA14-3-2 (1.2 mg of pure compound I-2), SPA14-3-3 (4.1 mg of pure compound I-3), and SPA14-3-4 (18 mg of pure compound I-1).
General Experimental Procedure. Compound I-1 was isolated as described in Example Set 1, above. For samples of compound I-1 used in Example Set 2, HPLC and NMR indicated a purity of at least 95%. All experiments described in Example Set 2 were repeated at least two or three times. All MTT assays were performed according to Bates et al. “G-Rich Oligonucleotides for Cancer Treatment” Chapter 21 of Methods in Molecular Biology, Gene Therapy of Cancer, Wolfgang Walther and Ulrike S. Stein (eds.), Vol. 542, 2009, Humana Press.
(Tetrazolium dyes change colour on reduction, which living cells bring about.)

In brackets after ≈: the same amount, converted by molar mass.

One may read the GI50 as the concentration at which growth is held to half of that of the control. In the case of `C[C@@H]1CC[C@H]2C3C(O[C@]4([C@]5(O)CC6(C)C(=O)OC5C[C@@]6(C)O)CC[C@@]31O4)[C@H]1O[C@]13CC=CC(=O)[C@]23C` (stereo partly drawn) [I-1], in the experiment with DU145 cells (5 μM), the cell cycle parameters entry is recorded as “not perturbed”. Moreover, the “population of aneuploid cells that contain more than 4n DNA” value with DU145 cells (10 μM) is “additional peak to the right of the G2/M peak”. In addition, in the experiment on DU145 cells (10 μM, 24 h), the “fraction of cells in phase” value is on record as 8%, the “proportion of cells in G2/M phases” value was 49% and the “proportion of cells in S phase” value is recorded as 37%. Also, in the experiment on DU145 cells (10 μM, 48 h), the “fraction of cell in G2/M” value is 66% and the “percentage of cells in S phase” value is reported as “decreased”. Also, the “concentration of maximum antiproliferative activity” value in experiment [1] was 10 µM. In the experiment with RWPE-1 cells, the GI50 was about 1.2 µg/mL (≈ 2.4 µM).
